One test addresses T1, mGluR5 receptor (Sus scrofa, UniProt I3LUI7).
T1 construct: 450 μg of protein from brain homogenate with 5 nM ^3[H]-MPEP; from tissue; host or cells: pig brain halves without medulla, cerebellum and pons
The experiment in a line: [3H]-MPEP mGluR5 receptor binding assay (pig brain homogenate). The note with it: 5 nM [3H]-MPEP, read-out: IC50 mGluR5 Receptor (pig) [^3H]-MPEP Bond. Put shortly: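 Compounds at 10 μM competed with 5 nM [3H]-MPEP for binding to pig brain membranes (450 μg protein) for 60 min at room temperature in pH 8.0 Hepes buffer. Bound radioactivity was collected on glass-fibre filters and read by β-counting, with 10 μM unlabelled MPEP giving non-specific binding.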
T1 sequence (I3LUI7 19-1212): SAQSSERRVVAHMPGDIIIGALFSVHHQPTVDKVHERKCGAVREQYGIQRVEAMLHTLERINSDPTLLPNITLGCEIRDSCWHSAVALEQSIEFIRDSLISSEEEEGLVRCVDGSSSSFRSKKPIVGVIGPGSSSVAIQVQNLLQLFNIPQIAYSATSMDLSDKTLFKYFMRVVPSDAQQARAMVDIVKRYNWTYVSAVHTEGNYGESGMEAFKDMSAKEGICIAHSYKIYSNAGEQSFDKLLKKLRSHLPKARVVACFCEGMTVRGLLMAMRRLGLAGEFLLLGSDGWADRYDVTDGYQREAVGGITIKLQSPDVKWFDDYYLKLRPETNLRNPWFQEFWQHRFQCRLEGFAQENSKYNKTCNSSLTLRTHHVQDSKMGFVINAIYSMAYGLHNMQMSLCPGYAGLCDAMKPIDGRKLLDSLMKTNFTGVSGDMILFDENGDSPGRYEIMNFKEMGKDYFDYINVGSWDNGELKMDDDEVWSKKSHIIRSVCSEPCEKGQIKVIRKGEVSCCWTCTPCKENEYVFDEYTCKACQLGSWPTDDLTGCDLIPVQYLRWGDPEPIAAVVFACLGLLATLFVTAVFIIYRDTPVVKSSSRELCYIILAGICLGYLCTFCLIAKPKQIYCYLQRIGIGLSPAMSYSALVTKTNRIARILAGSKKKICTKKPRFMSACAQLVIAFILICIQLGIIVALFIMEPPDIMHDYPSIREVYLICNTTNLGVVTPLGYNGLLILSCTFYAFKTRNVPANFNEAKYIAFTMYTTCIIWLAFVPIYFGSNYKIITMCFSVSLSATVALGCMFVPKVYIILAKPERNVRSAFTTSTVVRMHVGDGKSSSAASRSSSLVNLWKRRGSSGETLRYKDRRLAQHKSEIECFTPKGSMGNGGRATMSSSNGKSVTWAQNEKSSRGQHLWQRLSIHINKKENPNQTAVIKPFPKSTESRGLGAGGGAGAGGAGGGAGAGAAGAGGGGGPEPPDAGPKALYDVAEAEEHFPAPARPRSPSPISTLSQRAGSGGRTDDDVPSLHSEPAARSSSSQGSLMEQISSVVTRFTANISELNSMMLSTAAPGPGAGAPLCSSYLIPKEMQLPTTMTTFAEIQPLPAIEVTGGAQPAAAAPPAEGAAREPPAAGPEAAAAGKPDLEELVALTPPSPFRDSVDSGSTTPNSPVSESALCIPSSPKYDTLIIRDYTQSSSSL
On to `N#CCC(=O)N(Cc1cc(-c2ccc3ncnc(NC4CC4)c3c2)ccc1F)C1CC1` [Example 277, 2-cyano-N-cyclopropyl-N-(5-(4-(cyclopropylamino)quinazolin-6-yl)-2-fluorobenzyl)acetamide], for which the half-inhibitory concentration (IC50) – broadly, the midpoint of a concentration-inhibition curve – was found to be 40 nM.

In the case of `CC(c1cccc(-c2ccc3ncnc(NC4CC4)c3c2)c1)N(C(=O)c1ccccc1)C1CC1` (stereo not drawn) [Example 233, N-cyclopropyl-N-{1-[3-(4-cyclopropylamino-quinazolin-6-yl)-phenyl]-ethyl}-benzamide], the IC50 came out at 820 nM.

In the case of `O=C(C1CCCCC1)N(Cc1cccc(-c2ccc3ncnc(NC4CC4)c3c2)c1)C1CC1` [Example 265, N-cyclopropyl-N-(3-(4-(cyclopropylamino)quinazolin-6-yl)benzyl)cyclohexane carboxamide], the IC50 amounted to 1890 nM.

Take `O=C(c1c(F)c(F)c(F)c(F)c1F)N(Cc1cccc(-c2ccc3ncnc(NC4CC4)c3c2)c1)C1CC1` [Example 254, N-cyclopropyl-N-[3-(4-cyclopropylamino-quinazolin-6-yl)-benzyl]-2,3,4,5,6-pentafluoro-benzamide]: the IC50 was 600 nM.

Consider `O=C(Cc1ccccc1)N(Cc1cccc(-c2ccc3ncnc(NC4CC4)c3c2)c1)C1CC1` [Example 264, N-cyclopropyl-N-[3-(4-cyclopropylamino-quinazolin-6-yl)-benzyl]-2-phenyl-acetamide], for which the IC50 was found to be 1520 nM.

Staying with this test, now noted: 10 μM compound, 5 nM [3H]-MPEP.
Regarding `CCCCC(=O)N(Cc1cc(-c2ccc3ncnc(NC4CC4)c3c2)ccc1Cl)C1CC1` [Example 793, N-(2-chloro-5-(4-(cyclopropylamino)quinazolin-6-yl)benzyl)-N-cyclopropyl pentanamide], the “% Inhibition of mGluR5 Receptor (pig) [^3H]-MPEP Bond at 10 μM” value (shortened to “% Inhibition of mGluR5 Receptor (pig)”) is recorded as 94%.

In the case of `O=S(=O)(c1ccc(Cl)cc1Cl)N(Cc1cc(-c2ccc3ncnc(NC4CC4)c3c2)ccc1F)C1CC1` [Example 391, 2,4-dichloro-N-cyclopropyl-N-(5-(4-(cyclopropylamino)quinazolin-6-yl)-2-fluorobenzyl)benzole sulfonamide], the “% Inhibition of mGluR5 Receptor (pig)” value is reported as 74%.

`COc1ccc(S(=O)(=O)N(Cc2cc(-c3ccc4ncnc(NC5CC5)c4c3)ccn2)C2CC2)cc1` [Example 806, N-cyclopropyl-N-((4-(4-(cyclopropylamino)quinazolin-6-yl)pyridin-2-yl)methyl)-4-methoxybenzole sulfonamide]: the “% Inhibition of mGluR5 Receptor (pig)” value is given as 89%.

The test is the same for the next values; noted with them: 10 μM compound, 5 nM [3H]-MPEP, read-out: % Inhibition of mGluR5 Receptor (pig) [^3H]-MPEP Bond at 10 μM.
Turning to `O=C(c1cccnc1)N(Cc1cc(-c2ccc3ncnc(NC4CC4)c3c2)ccc1F)C1CC1` [Example 367, N-cyclopropyl-N-(5-(4-(cyclopropylamino)quinazolin-6-yl)-2-fluorobenzyl)nicotinamide], the inhibition (usually how much of the control response was suppressed) at 10 µM worked out at 94%.

Regarding `Cc1cc(C(=O)N(Cc2cc(-c3ccc4ncnc(NC5CC5)c4c3)ccc2F)C2CC2)n(C)n1` [Example 435, N-cyclopropyl-N-(5-(4-(cyclopropylamino)quinazolin-6-yl)-2-fluorobenzyl)-1,3-dimethyl-1H-pyrazole-5-carboxamide], the inhibition at 10 µM stood at 87%.

As to `Cc1nc(NC2CC2)c2cc(-c3ccc(F)c(CN(C(=O)c4cccc(C(F)(F)F)c4)C4CC4)c3)ccc2n1` [Example 582, N-cyclopropyl-N-(5-(4-(cyclopropylamino)-2-methylquinazolin-6-yl)-2-fluorobenzyl)-3-(trifluoromethyl)benzamide], the inhibition at 10 µM was determined as 80%.

Turning to `O=C(Cc1ccccc1)N(Cc1cc(-c2ccc3ncnc(NC4CC4)c3c2)ccc1Cl)C1CC1` [Example 748, N-(2-chloro-5-(4-(cyclopropylamino)quinazolin-6-yl)benzyl)-N-cyclopropyl-2-phenylacetamide], the inhibition at 10 µM was 66%.

Turning to `Cc1cc2ncnc(NC3CC3)c2cc1-c1cccc(CN(C(=O)c2cccnc2)C2CC2)c1` [Example 702, N-cyclopropyl-N-(3-(4-(cyclopropylamino)-7-methylquinazolin-6-yl)benzyl)nicotinamide], the inhibition at 10 µM was determined as 86%.

With `O=C(c1ccccc1C(F)(F)F)N(Cc1cccc(-c2cc(F)c3ncnc(NC4CC4)c3c2)c1)C1CC1` [Example 789, N-cyclopropyl-N-(3-(4-(cyclopropylamino)-8-fluoroquinazolin-6-yl)benzyl)-2-(trifluoromethyl)benzamide], the inhibition at 10 µM amounted to 84%.

As for `O=C(COc1ccccc1)N(Cc1cccc(-c2ccc3ncnc(NC4CC4)c3c2)c1)C1CC1` [Example 164, N-cyclopropyl-N-[3-(4-cyclopropylamino-quinazolin-6-yl)-benzyl]-2-phenoxy-acetamide], the inhibition at 10 µM is 86%.

Turning to `CCCN(Cc1cccc(-c2ccc3ncnc(Nc4ccccc4)c3c2)c1)C(=O)c1cccnc1` [Example 117, N-[3-(4-phenylamino-quinazolin-6-yl)-benzyl]-N-propyl-nicotinamide], the inhibition at 10 µM is 68%.

Regarding `Cc1nc(NC2CC2)c2cc(-c3cccc(CN(C(=O)Cc4ccccc4)C4CC4)c3)ccc2n1` [Example 544, N-cyclopropyl-N-(3-(4-(cyclopropylamino)-2-methylquinazolin-6-yl)benzyl)-2-phenylacetamide], the inhibition at 10 µM stood at 66%.

With `CC(C)(C)Nc1ncnc2ccc(-c3ccc(F)c(CN(C(=O)c4ccccc4C(F)(F)F)C4CC4)c3)cc12` [Example 814, N-(5-(4-(tert-butylamino)quinazolin-6-yl)-2-fluorobenzyl)-N-cyclopropyl-2-(trifluoromethyl)benzamide], the inhibition at 10 µM is 89%.

Take `O=C(c1ccncc1)N(Cc1cccc(-c2ccc3ncnc(NCCc4ccccc4)c3c2)c1)C1CC1` [Example 377, N-cyclopropyl-N-(3-(4-(phenethylamino)quinazolin-6-yl)benzyl)isonicotinamide]: the inhibition at 10 µM was 59%.

As to `Cc1cc(C(=O)N(Cc2cccc(-c3ccc4ncnc(NCCc5ccccc5)c4c3)c2)C2CC2)n(C)n1` [Example 369, N-cyclopropyl-1,3-dimethyl-N-(3-(4-(phenethylamino)quinazolin-6-yl)benzyl)-1H-pyrazole-5-carboxamide], the inhibition at 10 µM is 34%.

Regarding `O=C(c1cccc(C(F)(F)F)c1)N(Cc1cc(-c2ccc3ncnc(NC4CC4)c3c2)ccc1Cl)C1CC1` [Example 732, N-(2-chloro-5-(4-(cyclopropylamino)quinazolin-6-yl)benzyl)-N-cyclopropyl-3-(trifluoromethyl)benzamide], the inhibition at 10 µM was found to be 63%.

For `CC(C)Nc1ncnc2ccc(-c3cccc(CN(Cc4ccccc4)C(=O)c4cnccn4)c3)cc12` [Example 45, pyrazine-2-carboxylic acid benzyl-[3-(4-isopropylamino-quinazolin-6-yl)-benzyl]-amide], the inhibition at 10 µM was 48%.

Regarding `CC(C)S(=O)(=O)N(Cc1cc(-c2ccc3ncnc(NC4CC4)c3c2)ccn1)C1CC1` [Example 804, N-cyclopropyl-N-((4-(4-(cyclopropylamino)quinazolin-6-yl)pyridin-2-yl)methyl)propane-2-sulfonamide], the inhibition at 10 µM was found to be 83%.

With `Cc1nc(C(=O)N(Cc2cccc(-c3cc(F)c4ncnc(NC5CC5)c4c3)c2)C2CC2)cs1` [Example 830, N-cyclopropyl-N-(3-(4-(cyclopropylamino)-8-fluoroquinazolin-6-yl)benzyl)-2-methylthiazole-4-carboxamide], the inhibition at 10 µM is 90%.

In the case of `CC(C)(C)Nc1ncnc2ccc(-c3ccc(F)c(CN(C(=O)c4c(F)c(F)c(F)c(F)c4F)C4CC4)c3)cc12` [Example 840, N-(5-(4-(tert-butylamino)quinazolin-6-yl)-2-fluorobenzyl)-N-cyclopropyl-2,3,4,5,6-pentafluorobenzamide], the inhibition at 10 µM was found to be 74%.

Take `O=C(c1ccccc1O)N(Cc1cccc(-c2ccc3ncnc(NC4CC4)c3c2)c1)C1CC1` [Example 156, N-cyclopropyl-N-[3-(4-cyclopropylamino-quinazolin-6-yl)-benzyl]-2-hydroxy-benzamide]: the inhibition at 10 µM was found to be 90%.

With `CC(C)(C)C(=O)N(Cc1cccc(-c2ccc3ncnc(NCCc4ccccc4)c3c2)c1)C1CC1` [Example 401, N-cyclopropyl-N-(3-(4-(phenethylamino)quinazolin-6-yl)benzyl)pivalamide], the inhibition at 10 µM was determined as 36%.

For the molecule `Cc1cc2ncnc(NC3CC3)c2cc1-c1cccc(CN(C(=O)c2c(F)c(F)c(F)c(F)c2F)C2CC2)c1` [Example 768, N-cyclopropyl-N-(3-(4-(cyclopropylamino)-7-methylquinazolin-6-yl)benzyl)-2,3,4,5,6-pentafluorobenzamide], the inhibition at 10 µM was determined as 88%.

As to `CCN(CC)c1ncnc2ccc(-c3cccc(CN(C)C(=O)c4ccsc4)c3)cc12` [Example 70, thiophene-3-carboxylic acid [3-(4-diethylamino-quinazolin-6-yl)-benzyl]-methyl-amide], the inhibition at 10 µM turned out to be 34%.

On to `CS(=O)(=O)N(Cc1cc(-c2ccc3ncnc(NC4CC4)c3c2)ccc1F)C1CC1` [Example 251, N-cyclopropyl-N-(5-(4-(cyclopropylamino)quinazolin-6-yl)-2-fluorobenzyl)methane sulfonamide], for which the inhibition at 10 µM is 30%.

For `CCCCC(=O)N(Cc1cc(-c2ccc3ncnc(NC4CC4)c3c2)ccn1)C1CC1` [Example 829, N-cyclopropyl-N-((4-(4-(cyclopropylamino)quinazolin-6-yl)pyridin-2-yl)methyl)pentanamide], the inhibition at 10 µM was determined as 45%.

For the molecule `CC(C)CN(Cc1cccc(-c2ccc3ncnc(N4CCOCC4)c3c2)c1)C(=O)CN(C)C` [Example 31, 2-dimethylamino-N-isobutyl-N-[3-(4-morpholin-4-yl-quinazolin-6-yl)-benzyl]-acetamide], the inhibition at 10 µM turned out to be 32%.

In the case of `COc1ccc(C(=O)N(Cc2cccc(-c3ccc4ncnc(N5CCCC5)c4c3)c2)C2CC2)cc1` [Example 142, N-cyclopropyl-4-methoxy-N-[3-(4-pyrrolidin-1-yl-quinazolin-6-yl)-benzyl]-benzamide], the inhibition at 10 µM is 51%.

The values are drawn from US20090069320A1, “Substituted 4-Amino-Quinazoline Compounds with Metabotropic Glutamate Receptor Regulating Activity and Uses Thereof” (Gruenenthal GmbH, priority 2006, published 2009).
